Experimental findings from ChEMBL document CHEMBL4342505, “Achieving In Vivo Target Depletion through the Discovery and Optimization of Benzimidazolone BCL6 Degraders” (J Med Chem, 2020) are described below.

Each structure is given as a SMILES string. Converted amounts (≈) assume the structure as drawn. Where only a bound is given, the exact number is not on record here.

Series [1] concerns the target T1, B-cell lymphoma 6 protein (Homo sapiens, UniProt P41182).
Description: Inhibition of recombinant His-tagged human BCL6 expressed in Escherichia coli BL21 AI cell incubated for 2 hrs by TR-FRET assay
The target of series [2] is BCL-6/NCOR2 (Homo sapiens, UniProt P41182).
Description: Inhibition of recombinant human Nanoluc-tagged BCL6/Halo-tagged SMRT transfected in human HEK293T cells assessed as reduction in BCL6/SMRT interaction incubated for 6 hrs by NANOBRET assay
Series [3] in a line: Kinetic solubility in HEPES buffer containing 5% DMSO at pH 8 incubated for 20 hrs by NMR analysis. The format is physicochemical. The note with it: read-out: Kinetic_solubility.
Series [4] deals with T1, B-cell lymphoma 6 protein. The source holds these as a separate data set.
Description: Induction of BCL6 degradation in human SUDHL-4 cells incubated for 2 hrs by immunofluorescence analysis
The nature of series [5]: Metabolic stability in CD-1 mouse liver microsomes assessed as intrinsic clearance at 1 uM measured upt0 30 mins by LC-MS/MS analysis. The format is ADME, Microsome. The following applies: 0.5 h. For orientation: Microsomes from liver hold many membrane-bound enzymes, among them those of drug oxidation.
Series [6] in a line: Lipophilicity, log D of compound at pH 7.4. The format is physicochemical. The note with it: buffer.

The IC50 is the concentration that gives 50% inhibition. A high value points to lower potency. One may read the logD as lipophilicity at a set pH, counting ionised and neutral species. A low value points to lower lipophilicity.

Take `Cn1ccnc1-c1ncc(Cl)c(Nc2ccc3c(c2)n(CCC(C)(C)O)c(=O)n3C)n1`: the figures for the IC50 in series [1] and in series [2] were 480 nM and 4600 nM, respectively. Also, the solubility kinetic at 20 h in series [3] came out at 113 µM (≈ 49.9 µg/mL). In series [4], the DC50 is above 10000 nM.

Turning to `Cn1c(=O)n(CCC(C)(C)O)c2cc(Nc3nc(-n4cccn4)ncc3Cl)ccc21`, the IC50 in series [1] came out at 710 nM; in series [2], 5900 nM. Also, the solubility kinetic at 20 h in series [3] was found to be 146 µM (≈ 62.5 µg/mL). In series [4], this compound showed a DC50 above 10000 nM.

Turning to `Cn1c(=O)n(CCC(C)(C)O)c2cc(Nc3nc(N4CCCC(CO)C4)ncc3Cl)ccc21` (centres undefined), the IC50 in series [1] turned out to be 130 nM. Besides, in series [3], the solubility kinetic at 20 h was 442 µM (≈ 210 µg/mL). Also, the CLH in series [5] came out at 370 µL/min/mg. Further, the logD in series [6] is 2.1. In series [4], the DC50 amounted to 450 nM.

As for `CC[C@@H](O)Cn1c(=O)n(C)c2ccc(Nc3ccnc(Cl)c3C#N)cc21`, the IC50 in series [1] came out at 4500 nM. Besides, the solubility kinetic at 20 h in series [3] is 307 µM (≈ 114 µg/mL).

In series [1], `Cn1c(=O)n(CCC(C)(C)O)c2cc(Nc3nc(N4CCCC(C#N)C4)ncc3Cl)ccc21` (centres undefined) came in with an IC50 of 390 nM. Moreover, in series [3], the solubility kinetic at 20 h was determined as 330 µM (≈ 155 µg/mL). In series [4], this compound registered a DC50 above 10000 nM.

Compound `Cc1nc(C)c(-c2ncc(Cl)c(Nc3ccc4c(c3)n(CCC(C)(C)O)c(=O)n4C)n2)s1` returned an IC50 in series [1] of 1400 nM. In addition, the solubility kinetic at 20 h in series [3] is below 30 µM. In addition, in series [4], the DC50 was above 10000 nM.

`CN(C)c1ncc(Cl)c(Nc2ccc3c(c2)n(CCC(C)(C)O)c(=O)n3C)n1`: it took 1200 nM to reach half-maximal inhibition in series [1] (IC50). In addition, the solubility kinetic at 20 h in series [3] was determined as 223 µM (≈ 90.3 µg/mL).

Take `Cn1c(=O)n(CCC(C)(C)O)c2cc(Nc3nc(N4CCCCC4)ncc3Cl)ccc21`: the half-inhibitory concentration (IC50) in series [1] was 1000 nM. Further, in series [3], the solubility kinetic at 20 h turned out to be 70 µM (≈ 31.1 µg/mL).

In series [1], `CCC(O)Cn1c(=O)n(C)c2ccc(Nc3ccnc(Cl)c3C#N)cc21` (racemic) returned an IC50 of 5400 nM. Moreover, in series [3], the solubility kinetic at 20 h amounted to 298 µM (≈ 111 µg/mL).

Turning to `Cc1cc(C)n(-c2ncc(Cl)c(Nc3ccc4c(c3)n(CCC(C)(C)O)c(=O)n4C)n2)n1`, the IC50 in series [1] worked out at 260 nM; in series [2], 1800 nM. Besides, the solubility kinetic at 20 h in series [3] is 404 µM (≈ 184 µg/mL). The compound further came in with a DC50 in series [4] above 10000 nM.

With `CC1CCCN(c2ncc(Cl)c(Nc3ccc4c(c3)n(CCC(C)(C)O)c(=O)n4C)n2)C1` (centres undefined), the figures for the IC50 in series [1] and in series [2] were 640 nM and 13000 nM, respectively. In series [3], the solubility kinetic at 20 h was 44 µM (≈ 20.2 µg/mL). Moreover, the CLH in series [5] is 2210 µL/min/mg. In addition, in series [6], the logD is on record as 4.2. The DC50 in series [4] was 520 nM.

Regarding `Cn1c(=O)n(CCC(C)(C)O)c2cc(Nc3ncnc(Cl)c3Cl)ccc21`, the IC50 in series [1] was 2100 nM. For the same compound, the solubility kinetic at 20 h in series [3] turned out to be 344 µM (≈ 136 µg/mL).

Consider `CSc1ncc(Cl)c(Nc2ccc3c(c2)n(CCC(C)(C)O)c(=O)n3C)n1`, for which the IC50 in series [1] is 680 nM. Besides, in series [3], the solubility kinetic at 20 h came to 337 µM (≈ 137 µg/mL).

In the case of `Cn1c(=O)n(CCC(C)(C)O)c2cc(Nc3nc(N4CCC(C(F)(F)F)CC4)ncc3Cl)ccc21`, inhibition in series [1] was half-maximal at 960 nM (IC50). Also, the solubility kinetic at 20 h in series [3] was determined as 22 µM (≈ 11.3 µg/mL). In series [4], this compound registered a DC50 above 10000 nM.

Turning to `Cn1c(=O)n(CCC(C)(C)O)c2cc(Nc3nc(N4CCCC(C(F)(F)F)C4)ncc3Cl)ccc21` (centres undefined), it took 400 nM to reach half-maximal inhibition in series [1] (IC50). In series [3], the solubility kinetic at 20 h was below 30 µM. Moreover, the CLH in series [5] was 630 µL/min/mg. This compound returned a log distribution coefficient (logD) in series [6] of 4.2. In series [4], the DC50 is 750 nM.

Turning to `Cn1c(=O)n(CCC(C)(C)O)c2cc(Nc3nc(N4CCOCC4)ncc3Cl)ccc21`, the IC50 in series [1] turned out to be 270 nM; in series [2], 2300 nM. In series [3], the solubility kinetic at 20 h is 370 µM (≈ 165 µg/mL).

In the case of `COCC1CN(c2ncc(Cl)c(Nc3ccc4c(c3)n(CCC(C)(C)O)c(=O)n4C)n2)CCC1(F)F` (centres undefined), the solubility kinetic at 20 h in series [3] amounted to 72 µM (≈ 37.8 µg/mL). Besides, the CLH in series [5] is above 1000 µL/min/mg. The same compound showed a pH-dependent lipophilicity (logD) in series [6] of 3.5. Further, the DC50 in series [4] worked out at 440 nM.

Turning to `Cn1c(=O)n(CCC(C)(C)O)c2cc(Nc3ccncc3Cl)ccc21`, the IC50 in series [1] amounted to 990 nM. Further, in series [3], the solubility kinetic at 20 h came out at 526 µM (≈ 190 µg/mL).

With `Cn1c(=O)n(C)c2cc(Nc3cc(SCc4ccccc4)ncn3)ccc21`, in series [3], the solubility kinetic at 20 h is below 30 µM.

As to `Cc1ccn(-c2ncc(Cl)c(Nc3ccc4c(c3)n(CCC(C)(C)O)c(=O)n4C)n2)n1`, the results for the IC50 in series [1] and in series [2] were 400 nM and 2500 nM, respectively. For the same compound, the solubility kinetic at 20 h in series [3] is 253 µM (≈ 112 µg/mL). The DC50 in series [4] was above 10000 nM.

As to `C[C@@H]1CN(c2cc(Nc3ccc4c(c3)n(CCC(C)(C)O)c(=O)n4C)c(Cl)cn2)C[C@H](C)O1`, the IC50 in series [1] amounted to 930 nM; in series [2] it was 5000 nM. The solubility kinetic at 20 h in series [3] stood at 83 µM (≈ 39.3 µg/mL).

`C[C@@H]1C[C@H](C)CN(c2cc(Nc3ccc4c(c3)n(CCC(C)(C)O)c(=O)n4C)c(Cl)cn2)C1` registered an IC50 in series [1] of 3500 nM. In addition, the solubility kinetic at 20 h in series [3] was determined as 12 µM (≈ 5.66 µg/mL). In series [4], the DC50 turned out to be 1800 nM.

As for `CC[C@H](O)Cn1c(=O)n(C)c2ccc(Nc3ccnc(Cl)c3C#N)cc21`, the IC50 in series [1] amounted to 4600 nM. Moreover, the solubility kinetic at 20 h in series [3] was found to be 313 µM (≈ 116 µg/mL).

In the case of `Cc1cc(C)n(-c2cc(Nc3ccc4c(c3)n(CCC(C)(C)O)c(=O)n4C)c(Cl)cn2)n1`, the values for the IC50 in series [1] and in series [2] were 790 nM and 4600 nM, respectively. For the same compound, the solubility kinetic at 20 h in series [3] is 135 µM (≈ 61.4 µg/mL). The compound also displayed a DC50 in series [4] above 10000 nM.

As for `Cn1c(=O)n(CCC(C)(C)O)c2cc(Nc3nc(N4C5CCC4CC(F)(F)C5)ncc3Cl)ccc21`, in series [3], the solubility kinetic at 20 h was below 30 µM.

Regarding `Cn1c(=O)n(CCC(C)(C)O)c2cc(Nc3nc(Cl)ncc3Cl)ccc21`, the solubility kinetic at 20 h in series [3] was 361 µM (≈ 143 µg/mL).

On to `C[C@@H]1CN(c2ncc(Cl)c(Nc3ccc4c(c3)n(CCC(C)(C)O)c(=O)n4C)n2)C[C@H](C)N1C`, for which the IC50 in series [1] was 190 nM; in series [2] it was 1550 nM. The solubility kinetic at 20 h in series [3] is 343 µM (≈ 167 µg/mL). Moreover, the DC50 in series [4] was above 10000 nM.

On to `CC1CN(c2ncc(Cl)c(Nc3ccc4c(c3)n(CCC(C)(C)O)c(=O)n4C)n2)CCC1(F)F` (centres undefined), for which, in series [1], the IC50 is 330 nM. Besides, the solubility kinetic at 20 h in series [3] came to 24 µM (≈ 11.9 µg/mL). The CLH in series [5] was determined as 66 µL/min/mg. In series [6], this compound had a logD of 3.9. Also, the DC50 in series [4] was found to be 180 nM.

For `C[C@@H](O)CCn1c(=O)n(C)c2ccc(Nc3ccnc(Cl)c3C#N)cc21`, the solubility kinetic at 20 h in series [3] worked out at 308 µM (≈ 115 µg/mL).

As to `Cn1c(=O)n(C)c2cc(Nc3ncccc3C#N)ccc21`, the solubility kinetic at 20 h in series [3] was 300 µM (≈ 83.8 µg/mL).

In series [1], `Cn1c(=O)n(CCC(C)(C)O)c2cc(Nc3nc(N4CC5CCC(C4)C5(F)F)ncc3Cl)ccc21` yielded an IC50 of 710 nM. Also, the solubility kinetic at 20 h in series [3] came out at 22 µM (≈ 11.2 µg/mL). This compound showed a DC50 in series [4] above 10000 nM.

With `Cn1c(=O)n(CCC(C)(C)O)c2cc(Nc3ccnc(Cl)c3Cl)ccc21`, the IC50 in series [1] amounted to 1400 nM. For the same compound, the solubility kinetic at 20 h in series [3] is 251 µM (≈ 99.2 µg/mL).

In series [1], `Cn1c(=O)n(CCC(C)(C)O)c2cc(Nc3c(Cl)cncc3Cl)ccc21` returned an IC50 of 37000 nM. For the same compound, in series [3], the solubility kinetic at 20 h is 126 µM (≈ 49.8 µg/mL).

In series [1], `CCCCn1c(=O)n(C)c2ccc(Nc3ccnc(Cl)c3C#N)cc21` returned an IC50 of 6600 nM. Also, in series [3], the solubility kinetic at 20 h is 53 µM (≈ 18.9 µg/mL).

Consider `N#Cc1c(NCc2ccccc2)ccnc1Cl`, for which the solubility kinetic at 20 h in series [3] is 60 µM (≈ 14.6 µg/mL).

Consider `C[C@H](O)CCn1c(=O)n(C)c2ccc(Nc3ccnc(Cl)c3C#N)cc21`, for which the solubility kinetic at 20 h in series [3] was found to be 251 µM (≈ 93.3 µg/mL).

Turning to `Cc1ccnn1-c1ncc(Cl)c(Nc2ccc3c(c2)n(CCC(C)(C)O)c(=O)n3C)n1`, the figures for the IC50 in series [1] and in series [2] were 430 nM and 2700 nM, respectively. Besides, the solubility kinetic at 20 h in series [3] worked out at 420 µM (≈ 186 µg/mL). This compound also had a DC50 in series [4] above 10000 nM.

`N#Cc1c(NCC2CC2)ccnc1Cl`: in series [3], the solubility kinetic at 20 h was 300 µM (≈ 62.3 µg/mL).
